Measured values taken from ChEMBL document CHEMBL1201862, “PubChem BioAssay data set” (2004).
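Dose response: 5 concentrations. Exposure: 48 h. Format: 96-well plates. Endpoint: linear interpolation; highest concentration if not reached. The concentration for 50% growth inhibition is given as GI50.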 Active and inactive are the calls of the source. No stated cut-off is given here; in the data, active = GI50 up to about 1.1 µM and inactive = higher.

Tests used:
Experiment in all cases: NCI tumour cell line growth inhibition, 48 h
[1] = system: SNB-75
[2] = system: CAKI-1
[3] = system: OVCAR-8
[4] = system: SF-268
[5] = system: HT-29
[6] = system: SF-295
[7] = system: M14
[8] = system: PC-3
[9] = system: NCI-H23
[10] = system: LOX IMVI
[11] = system: RXF 393
[12] = system: SR
[13] = system: HL-60
[14] = system: EKVX
[15] = system: DU-145
[16] = system: BT-549
[17] = system: MOLT-4
[18] = system: SW-620
[19] = system: NCI-H226
[20] = system: TK-10
[21] = system: SK-OV-3
[22] = system: SF-539
[23] = system: UACC-62
[24] = system: U-251
[25] = system: MCF7
[26] = system: CCRF-CEM
[27] = system: HOP-92
[28] = system: Malme-3M
[29] = system: NCI-H460
[30] = system: KM12
[31] = system: OVCAR-5
[32] = system: MDA-MB-435
[33] = system: SN12C
[34] = system: Hs-578T
[35] = system: HOP-62
[36] = system: A549
[37] = system: SK-MEL-28
[38] = system: MDA-N
[39] = system: UO-31
[40] = system: IGROV-1
[41] = system: UACC-257
[42] = system: OVCAR-4
[43] = system: SNB-19
[44] = system: 786-0
[45] = system: T47D
[46] = system: SK-MEL-5
[47] = system: HCT-15
[48] = system: HCC 2998
[49] = system: SK-MEL-2
[50] = system: A498
[51] = system: COLO 205
[52] = system: NCI-H522
[53] = system: MDA-MB-231
[54] = system: HCT-116
[55] = system: K562
[56] = system: NCI/ADR-RES
[57] = system: ACHN
[58] = system: RPMI-8226

SMILES: CC1(C)N=C(N)N=C(N)N1c1ccc(Cl)cc1
- GI50 [1]: > 100 µM (inactive)
- GI50 [2]: 19.1 µM (inactive)
- GI50 [3]: 0.817 µM (active)
- GI50 [4]: 0.708 µM (active)
- GI50 [5]: 2.92 µM (inactive)
- GI50 [6]: 3.33 µM (inactive)
- GI50 [7]: 4.88 µM (inactive)
- GI50 [8]: 1.88 µM (inactive)
- GI50 [9]: 3.44 µM (inactive)
- GI50 [10]: 1.34 µM (inactive)
- GI50 [11]: 53.2 µM (inactive)
- GI50 [12]: 1.36 µM (inactive)
- GI50 [13]: 15.4 µM (inactive)
- GI50 [14]: 26.7 µM (inactive)
- GI50 [15]: 7.11 µM (inactive)
- GI50 [16]: 26.2 µM (inactive)
- GI50 [17]: 1.71 µM (inactive)
- GI50 [18]: 1.48 µM (inactive)
- GI50 [19]: 85.5 µM (inactive)
- GI50 [20]: 48.8 µM (inactive)
- GI50 [21]: 27.4 µM (inactive)
- GI50 [22]: 4.42 µM (inactive)
- GI50 [23]: 4.84 µM (inactive)
- GI50 [24]: 1.3 µM (inactive)
- GI50 [25]: 15.6 µM (inactive)
- GI50 [26]: 2.74 µM (inactive)
- GI50 [27]: 24.1 µM (inactive)
- GI50 [28]: 26.2 µM (inactive)
- GI50 [29]: 3.38 µM (inactive)
- GI50 [30]: 8.73 µM (inactive)
- GI50 [31]: 15 µM (inactive)
- GI50 [32]: 1.79 µM (inactive)
- GI50 [33]: 6.71 µM (inactive)
- GI50 [34]: > 100 µM (inactive)
- GI50 [35]: 9.02 µM (inactive)
- GI50 [36]: 0.665 µM (active)
- GI50 [37]: 37.1 µM (inactive)
- GI50 [38]: 1.51 µM (inactive)
- GI50 [39]: 47.2 µM (inactive)
- GI50 [40]: 2.23 µM (inactive)
- GI50 [41]: 26.5 µM (inactive)
- GI50 [42]: > 100 µM (inactive)
- GI50 [43]: 22.6 µM (inactive)
- GI50 [44]: 0.598 µM (active)
- GI50 [45]: 35.1 µM (inactive)
- GI50 [46]: 8.11 µM (inactive)
- GI50 [47]: 7.11 µM
- GI50 [48]: 9.02 µM (inactive)
- GI50 [49]: 10 µM (inactive)
- GI50 [50]: 58.6 µM (inactive)
- GI50 [51]: 7.06 µM (inactive)
- GI50 [52]: 3.99 µM (inactive)
- GI50 [53]: 21.7 µM (inactive)
- GI50 [54]: 4.17 µM (inactive)
- GI50 [55]: 0.317 µM (active)
- GI50 [56]: > 100 µM (inactive)
- GI50 [57]: 5.16 µM (inactive)
- GI50 [58]: 6.81 µM (inactive)
